Experimental data taken from patent US12472231B2 (priority 2020, dated 2025).
Converted amounts (≈) assume the structure as drawn. Where a SMILES comes first, the peptide text is derived from it.

What was measured:
SARS-CoV-2 [1] = tested on: SARS-CoV-2
[2] = tested on: endosomal acidification in MDCK cells; type: cell-based, canine
MERS-CoV [3] = type: binding
SARS-CoV [4] = tested on: SARS-CoV
A(H7N9) virus [5] = tested on: A(H7N9) virus
[6] = tested on: A(H1N1)pdm09 virus RNP release in MDCK cells
SARS-CoV [7] = type: binding
A(H1N1)pdm09 virus [8] = type: cell-based
A(H1N1)pdm09 virus [9] = tested on: A(H1N1)pdm09 virus
rhinovirus [10] = tested on: rhinovirus
H1N1 HA1 protein = H1N1 HA1 protein (Influenza A virus, UniProt C3W5S1)
Sequence of H1N1 HA1 protein (C3W5S1 18-344 limits assumed): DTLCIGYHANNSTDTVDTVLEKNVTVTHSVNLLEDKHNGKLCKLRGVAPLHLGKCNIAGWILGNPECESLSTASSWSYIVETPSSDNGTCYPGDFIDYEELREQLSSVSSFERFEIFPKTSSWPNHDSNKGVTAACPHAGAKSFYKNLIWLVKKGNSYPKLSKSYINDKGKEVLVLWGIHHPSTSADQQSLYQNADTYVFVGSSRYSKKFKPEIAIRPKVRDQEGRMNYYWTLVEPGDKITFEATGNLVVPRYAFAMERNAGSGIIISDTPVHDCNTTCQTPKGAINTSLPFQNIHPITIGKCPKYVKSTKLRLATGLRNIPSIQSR

MERS-CoV S protein = MERS-CoV S protein (Middle East respiratory syndrome-related coronavirus, UniProt K9N5Q8)
Sequence of MERS-CoV S protein (K9N5Q8 18-1353 limits assumed): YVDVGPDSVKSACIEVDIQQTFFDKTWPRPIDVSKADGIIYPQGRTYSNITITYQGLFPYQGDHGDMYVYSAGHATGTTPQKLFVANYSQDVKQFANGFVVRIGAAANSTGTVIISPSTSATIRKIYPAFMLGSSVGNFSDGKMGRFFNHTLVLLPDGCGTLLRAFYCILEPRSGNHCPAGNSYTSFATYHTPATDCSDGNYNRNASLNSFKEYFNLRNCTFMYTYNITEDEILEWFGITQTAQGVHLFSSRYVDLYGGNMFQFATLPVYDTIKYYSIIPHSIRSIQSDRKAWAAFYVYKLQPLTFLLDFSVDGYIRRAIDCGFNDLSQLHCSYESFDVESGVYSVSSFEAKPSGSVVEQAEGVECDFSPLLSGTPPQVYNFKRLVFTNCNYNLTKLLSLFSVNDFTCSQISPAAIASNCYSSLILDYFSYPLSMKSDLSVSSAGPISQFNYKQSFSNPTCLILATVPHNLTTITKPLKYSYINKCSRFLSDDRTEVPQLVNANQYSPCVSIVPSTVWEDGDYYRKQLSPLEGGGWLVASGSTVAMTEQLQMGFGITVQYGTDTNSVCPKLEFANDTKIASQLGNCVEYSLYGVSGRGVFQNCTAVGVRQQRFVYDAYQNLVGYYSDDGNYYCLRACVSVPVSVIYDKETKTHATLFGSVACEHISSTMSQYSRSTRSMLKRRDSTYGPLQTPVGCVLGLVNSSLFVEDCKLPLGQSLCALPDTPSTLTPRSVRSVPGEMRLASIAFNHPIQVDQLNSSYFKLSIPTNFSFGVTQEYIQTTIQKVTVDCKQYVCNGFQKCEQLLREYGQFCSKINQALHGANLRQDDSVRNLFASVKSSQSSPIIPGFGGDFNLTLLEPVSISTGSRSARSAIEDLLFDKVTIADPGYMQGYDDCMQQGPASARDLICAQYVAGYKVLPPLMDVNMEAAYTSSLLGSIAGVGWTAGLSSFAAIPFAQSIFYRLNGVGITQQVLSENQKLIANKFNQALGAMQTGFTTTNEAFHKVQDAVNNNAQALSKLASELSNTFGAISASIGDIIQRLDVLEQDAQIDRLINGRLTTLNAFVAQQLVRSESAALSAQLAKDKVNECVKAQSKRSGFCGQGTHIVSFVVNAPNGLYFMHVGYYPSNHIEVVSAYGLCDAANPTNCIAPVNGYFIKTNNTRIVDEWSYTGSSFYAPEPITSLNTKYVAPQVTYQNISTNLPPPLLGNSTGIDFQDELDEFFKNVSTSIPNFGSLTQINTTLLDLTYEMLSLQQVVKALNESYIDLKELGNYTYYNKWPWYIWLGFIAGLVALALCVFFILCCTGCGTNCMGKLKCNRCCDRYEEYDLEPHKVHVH

[11] = tested on: virus-host endosomal acidification; type: cell-based
SARS-CoV-2 [12] = tested on: SARS-CoV-2; remark: listed apart in the source
A(H1N1)pdm09 virus [13] = type: binding
A(H7N9) virus [14] = type: binding
rhinovirus [15] = type: binding; conditions: peptide coated on ELISA plate, bound virus by RT-qPCR
A(H7N9) virus [16] = tested on: A(H7N9) virus; remark: listed apart in the source
MERS-CoV [17] = tested on: MERS-CoV
MERS-CoV [18] = tested on: MERS-CoV; remark: listed apart in the source
rhinovirus [19] = tested on: rhinovirus; remark: listed apart in the source
SARS-CoV-2 [20] = type: binding

## CC[C@H](C)[C@H](NC(=O)[C@H](C)NC(=O)CNC(=O)[C@@H](N)CC(N)=O)C(=O)N[C@@H](CS)C(=O)N[C@@H](Cc1c[nH]c2ccccc12)C(=O)NCC(=O)N1CCC[C@H]1C(=O)N[C@@H](CS)C(=O)N1CCC[C@H]1C(=O)N[C@H](C(=O)N[C@@H](C)C(=O)N[C@@H](Cc1ccccc1)C(=O)N[C@@H](CCCNC(=N)N)C(=O)N[C@@H](CCC(N)=O)C(=O)N[C@H](C(=O)NCC(=O)N[C@@H](CC(N)=O)C(=O)N[C@@H](CS)C(=O)NCC(=O)N[C@@H](Cc1c[nH]cn1)C(=O)N[C@@H](Cc1ccccc1)C(=O)N[C@@H](CCCCN)C(=O)N[C@H](C(=O)N[C@@H](CCCNC(=N)N)C(=O)N[C@@H](CS)C(=O)N[C@@H](CS)C(=O)N[C@@H](CCCCN)C(=O)N[C@H](C(=O)N[C@@H](CCCNC(=N)N)C(=O)O)[C@@H](C)CC)C(C)C)[C@@H](C)CC)[C@@H](C)O [P9, reference compound]
SARS-CoV-2 [1]
  IC50 against SARS-CoV-2: 2.4 µg/mL (≈ 0.719 µM)
Parainfluenza virus 3
  IC50 against parainfluenza virus 3: > 25.0 µg/mL

## CC[C@H](C)[C@H](NC(=O)[C@H](C)NC(=O)CNC(=O)[C@@H](N)CC(N)=O)C(=O)N[C@@H](CS)C(=O)N[C@@H](Cc1c[nH]c2ccccc12)C(=O)NCC(=O)N1CCC[C@H]1C(=O)N[C@@H](CS)C(=O)N1CCC[C@H]1C(=O)N[C@H](C(=O)N[C@@H](C)C(=O)N[C@@H](Cc1ccccc1)C(=O)N[C@@H](CCCNC(=N)N)C(=O)N[C@@H](CCC(N)=O)C(=O)N[C@H](C(=O)NCC(=O)N[C@@H](CC(N)=O)C(=O)N[C@@H](CS)C(=O)NCC(=O)N[C@@H](CCCNC(=N)N)C(=O)N[C@@H](Cc1ccccc1)C(=O)N[C@@H](CCCNC(=N)N)C(=O)N[C@H](C(=O)N[C@@H](CCCNC(=N)N)C(=O)N[C@@H](CS)C(=O)N[C@@H](CS)C(=O)N[C@@H](CCCNC(=N)N)C(=O)N[C@H](C(=O)N[C@@H](CCCNC(=N)N)C(=O)O)[C@@H](C)CC)C(C)C)[C@@H](C)CC)[C@@H](C)O [P9R] (H-NGAICWGPCPTAFRQIGNCGRFRVRCCRIR-OH)
[2]
  inhibition of endosomal acidification in live cells: could more significantly inhibit endosomal acidification
MERS-CoV [3]
  binding to MERS-CoV: could also bind
SARS-CoV [4]
  inhibition of viral replication (viral RNA copies in supernatants): 1000 fold
A(H7N9) virus [5]
  inhibition against A(H7N9) virus compared with P9: significantly stronger inhibition
[6]
  inhibition of viral RNP release into nuclei: could inhibit viral RNP release into nuclei
SARS-CoV [7]
  binding to SARS-CoV: could also bind
SARS-CoV-2 [1]
  IC50 against SARS-CoV-2: 0.9 µg/mL (≈ 0.264 µM)
A(H1N1)pdm09 virus [8]
  inhibition against A(H1N1)pdm09 virus compared with P9: significantly stronger inhibition
A(H1N1)pdm09 virus [9]
  inhibition of viral replication (viral RNA copies in supernatants): > 20 fold
Rhinovirus [10]
  inhibition of viral replication (viral RNA copies in supernatants): > 20 fold
H1N1 HA1 protein
  binding to viral protein H1N1 HA1: could also bind
MERS-CoV S protein
  binding to viral protein MERS-CoV S: could also bind
[11]
  inhibition of virus-host endosomal acidification: could efficiently inhibit the virus-host endosomal acidification
SARS-CoV-2 [12]
  inhibition of viral replication (viral RNA copies in supernatants): 1000 fold
A(H1N1)pdm09 virus [13]
  binding to A(H1N1)pdm09 virus: could efficiently bind
A(H7N9) virus [14]
  binding to A(H7N9) virus: could also bind
Rhinovirus [15]
  binding to rhinovirus: could also bind
A(H7N9) virus [16]
  inhibition of viral replication (viral RNA copies in supernatants): > 20 fold
Parainfluenza virus 3
  IC50 against parainfluenza virus 3: > 25.0 µg/mL
MERS-CoV [17]
  inhibition of viral replication (viral RNA copies in supernatants): 1000 fold
MERS-CoV [18]
  inhibition against MERS-CoV compared with P9: significantly stronger inhibition
Rhinovirus [19]
  inhibition against rhinovirus compared with P9: significantly stronger inhibition
SARS-CoV-2 [20]
  binding to SARS-CoV-2: could efficiently bind

## CO/C1=C\C(C)=C\[C@@H](C)[C@@H](O)[C@@H](C)C/C(C)=C/C=C/[C@H](OC)[C@@H]([C@@H](C)[C@@H](O)[C@H](C)[C@@]2(O)C[C@@H](O)[C@H](C)[C@@H](C(C)C)O2)OC1=O [bafilomycin A1, reference compound]
[11]
  inhibition of virus-host endosomal acidification: could efficiently inhibit the virus-host endosomal acidification
